Assay results published in publication PMC6112376, “Comprehensive Analyses and Prioritization of Tox21 10K Chemicals Affecting Mitochondrial Function by in-Depth Mechanistic Studies” (Environmental Health Perspectives, 2018).
Where two headings read alike, the source gives them in different places.

Legend:
rat primary hepatocytes = assay: MMP assay in rat primary hepatocytes
HepG2 cells [1] = conditions: HepG2 cells, single number from one experiment; for IC50: read-out: MMP assays IC50 (µM) HepG2
[2] = test system: isolated rat liver mitochondria; assay: Oxygen consumption, Clark-type oxygen electrode; type: biochemical; conditions: for I-ADP, % of control (O2 consumption rate): glutamate/malate driven state 3 respiration; for I-ADP, % of control (O2 consumption rate) / I-sub, % of control (O2 consumption rate) / II-ADP, % of control (O2 consumption rate) / II-sub, % of control (O2 consumption rate): isolated rat liver mitochondria; for I-sub, % of control (O2 consumption rate): glutamate/malate driven state 4 respiration; for II-ADP, % of control (O2 consumption rate): succinate-driven state 3 respiration; for II-sub, % of control (O2 consumption rate): succinate-driven state 4 respiration
HepG2 cells [3] = assay: cells; conditions: Homo sapiens; for Emax: HepG2, read-out: MMP assays efficacy (%) HepG2
HepG2 cells [4] = conditions: cited from earlier work
[5] = rat hepatocytes, mean ± SD of three experiments
[6] = read-out: MMP assays IC50 (µM) Rat Hepatocytes, rat hepatocytes, mean ± SD of three experiments
[7] = HepG2, read-out: MMP assays IC50 (µM) HepG2
[8] = read-out: MMP assays IC50 (µM) qHTS-HepG2
[9] = Rattus norvegicus, Hepatocyte, read-out: MMP assays IC50 (µM) Rat Hepatocytes
[10] = read-out: MMP assays IC50 (µM), qHTS-HepG2

SMILES	MMP assays efficacy (%) Rat Hepatocytes (rat primary hepatocytes; [5])	IC50 (HepG2 cells [3]; [7]) [µM]	Emax (HepG2 cells [3]) [%]	MMP assays efficacy (%) qHTS-HepG2 (HepG2 cells [4]) [%]	IC50 (HepG2 cells [4]; [8]) [µM]	IC50 (rat primary hepatocytes; [9]) [µM]	IC50 (HepG2 cells [4]; [10]) [µM]	also measured
CCCCCCCCCCCCn1cc[n+](C)c1.F[P-](F)(F)(F)(F)F	-111±27%							IC50 (rat primary hepatocytes; [6]): 8.81 ± 2.46 µM; MMP assays efficacy (%) HepG2 (HepG2 cells [1]): -119%; IC50 (HepG2 cells [1]): 5.01 µM
NNc1nc(-c2ccc([N+](=O)[O-])cc2)cs1 [2-Hydrazino-4-(4-nitrophenyl) thiazole]								I-ADP, % of control (O2 consumption rate) ([2]; 20 µM): 103 (50.6) % of control; I-sub, % of control (O2 consumption rate) ([2]; 20 µM): 119 (19.1) % of control; II-ADP, % of control (O2 consumption rate) ([2]; 20 µM): 98 (76.1) % of control; II-sub, % of control (O2 consumption rate) ([2]; 20 µM): 99 (30.4) % of control; I-ADP, % of control (O2 consumption rate) ([2]; 100 µM): 61 (32.3) % of control; I-sub, % of control (O2 consumption rate) ([2]; 100 µM): 159 (21.4) % of control; II-ADP, % of control (O2 consumption rate) ([2]; 100 µM): 114 (77.1) % of control; II-sub, % of control (O2 consumption rate) ([2]; 100 µM): 153 (33.1) % of control; Potential Mechanism ([2]; mitochondrial respiration in isolated rat liver mitochondria, Clark type oxygen electrode, over tested concentrations): Uncoupler + inhibitor
CCCCCCCC[n+]1ccn(C)c1.F[P-](F)(F)(F)(F)F [1-Methyl-3-octylimidazolium hexafluorophosphate]	-86±43%							IC50 (rat primary hepatocytes; [6]): 39.8 µM; MMP assays efficacy (%) HepG2 (HepG2 cells [1]): -77%; IC50 (HepG2 cells [1]): 25.1 µM
Oc1cc(O)c(Cl)cc1Cl [4,6-Dichloro-1,3-benzenediol]	-37±3%	15.8	108	-100±10	9.55 ± 2.74	35.7 ± 5.79		
COC(=O)C1=C(C)NC(C)=C(C(=O)OCCN2CCN(C(c3ccccc3)c3ccccc3)CC2)C1c1cccc([N+](=O)[O-])c1 (stereo not drawn) [Manidipine]	-40±8%	27.5	98	-95±13		20.9 ± 5.06	12.2 ± 6.82	
CCCCCCCCCCCCCC[P+](CCCCCC)(CCCCCC)CCCCCC.F[P-](F)(F)(F)(F)F [Trihexyltetradecylphosphonium hexafluorophosphate]	inactive							MMP assays IC50 (µM) Rat Hepatocytes (rat primary hepatocytes; [5]): inactive; MMP assays efficacy (%) HepG2 (HepG2 cells [1]): -91%; IC50 (HepG2 cells [1]): 1.12 µM
COc1cc(C(=O)NS(=O)(=O)c2ccccc2C)ccc1Cc1cn(C)c2ccc(NC(=O)OC3CCCC3)cc12 [Zafirlukast]	-114±33%	13.8	105	-108±3		3.43 ± 1.47	10.6 ± 1.22	
O=c1c2ccccc2[se]n1-c1ccccc1 [Ebselen]	-58±5%	19.4	112	-94±8	23.2 ± 0.93	21.4 ± 5.35		
COc1ccc(/C=C/C(=O)c2ccc(OC)cc2OC)cc1 [Metochalcone]	-82±19%	39.8	119	-72±12		25.5 ± 18.2	18.2 ± 10.1	
CC(=O)Oc1ccc2c(c1)CC[C@@H]1[C@@H]2CC[C@]2(C)[C@@H](O)CC[C@@H]12 [Estradiol acetate]	inactive	17.3	95	-85±4	9.08 ± 0.59			MMP assays IC50 (µM) Rat Hepatocytes (rat primary hepatocytes; [5]): inactive
CC(C)(C)c1ccc(O)c(C(C)(C)C)c1 [2,4-Di-tert-butylphenol]	-131±66%	3.98	101	-95±5	3.5 ± 0.73	24 ± 16.6		
COCCOC(=O)C1=C(C)NC(C)=C(C(=O)OC/C=C/c2ccccc2)C1c1cccc([N+](=O)[O-])c1 (stereo not drawn) [Cilnidipine]	-75±17%	12.3	109	-104±6	12.5 ± 1.78	14.8 ± 8.07		
O=[N+]([O-])c1ccc(O)c2ncccc12 [Nitroxoline]	-69±54%	19.9	94	-80±8		72.3 ± 39.1	9.22 ± 2.41	
O=C(Nc1ccc(Cl)cc1)Nc1ccc(Cl)c(C(F)(F)F)c1 [Cloflucarban]	-95±5%	0.44	85	-113±9	0.6	0.58 ± 0.05		
N#CSCSc1nc2ccccc2s1 [2-(Thiocyanomethylthio)benzothiazole]	-136±65%	56.2	73	-85±16	33.1 ± 4.58	30.5 ± 26.4		
CC(=O)Oc1cccc2c1C(=O)c1c(OC(C)=O)cc(C(=O)O)cc1C2=O [Diacerein]	-70±14%	17.3	61	-81±16	20.6 ± 8.26	14.2 ± 11.3		
CSc1nc2cc(Cl)c(Oc3cccc(Cl)c3Cl)cc2[nH]1 [Triclabendazole]	-91±10%	5.48	97	-114±15		15.6 ± 2.52	1.84 ± 0.15	
c1ccc(CCCc2ccncc2)cc1 [4-(3-Phenylpropyl)pyridine]	-82±23%	14.1	46	-63±19	16.6 ± 6.74	13 ± 6.83		
CCCCCCCCCCCCCC[n+]1ccccc1 [Tetradecylpyridinium bromide]	-99±17%	17.8	102	-76±21		33.5 ± 2.73	22.5 ± 4.1	
Oc1c2ccccc2c2c3c(cccc13)N=N2 [SP600125]	-82±45%	1.55	105	-97±10		21.1 ± 2.91	0.92 ± 0.14	
Cc1cc(O)cc(C)c1Cl [4-Chloro-3,5-dimethylphenol]	inactive	25.1	106	-122±6	21			MMP assays IC50 (µM) Rat Hepatocytes (rat primary hepatocytes; [5]): inactive
Cc1ccc2c(c1[N+](=O)[O-])C(=O)c1ccccc1C2=O [Compound 2-Methyl-1-nitroanthraquinone]	-84±16%	2.77	88	-63±13	1.34 ± 0.15	16.9 ± 14.7		
CCCOC(=O)c1cc(O)c(O)c(O)c1 [Propyl gallate]	inactive	35.5	97	-88±15			42.3 ± 3.93	MMP assays IC50 (µM) Rat Hepatocytes (rat primary hepatocytes; [5]): inactive
O=C(Nc1cccc(C(F)(F)F)c1)c1cc(Br)cc(Br)c1O [fluorosalan]	-74±9%		100	-104±5			0.24 ± 0.09	IC50 (HepG2 cells [3]; HepG2, read-out: IC50 in HepG2 cells (MMP, tier-one retest)): 0.19 µM; IC50 (rat primary hepatocytes; Rattus norvegicus, Hepatocyte, 1 h, read-out: IC50 in rat primary hepatocytes (MMP, tier-one retest)): 0.42 µM
